Experimental data as given in US11667602B2, “Compounds and their use” (AstraZeneca AB, priority 2020, dated 2023).

Target: T1, human RXFP1 (Homo sapiens, UniProt Q9HBX9)
T1 sequence (Q9HBX9 1-757): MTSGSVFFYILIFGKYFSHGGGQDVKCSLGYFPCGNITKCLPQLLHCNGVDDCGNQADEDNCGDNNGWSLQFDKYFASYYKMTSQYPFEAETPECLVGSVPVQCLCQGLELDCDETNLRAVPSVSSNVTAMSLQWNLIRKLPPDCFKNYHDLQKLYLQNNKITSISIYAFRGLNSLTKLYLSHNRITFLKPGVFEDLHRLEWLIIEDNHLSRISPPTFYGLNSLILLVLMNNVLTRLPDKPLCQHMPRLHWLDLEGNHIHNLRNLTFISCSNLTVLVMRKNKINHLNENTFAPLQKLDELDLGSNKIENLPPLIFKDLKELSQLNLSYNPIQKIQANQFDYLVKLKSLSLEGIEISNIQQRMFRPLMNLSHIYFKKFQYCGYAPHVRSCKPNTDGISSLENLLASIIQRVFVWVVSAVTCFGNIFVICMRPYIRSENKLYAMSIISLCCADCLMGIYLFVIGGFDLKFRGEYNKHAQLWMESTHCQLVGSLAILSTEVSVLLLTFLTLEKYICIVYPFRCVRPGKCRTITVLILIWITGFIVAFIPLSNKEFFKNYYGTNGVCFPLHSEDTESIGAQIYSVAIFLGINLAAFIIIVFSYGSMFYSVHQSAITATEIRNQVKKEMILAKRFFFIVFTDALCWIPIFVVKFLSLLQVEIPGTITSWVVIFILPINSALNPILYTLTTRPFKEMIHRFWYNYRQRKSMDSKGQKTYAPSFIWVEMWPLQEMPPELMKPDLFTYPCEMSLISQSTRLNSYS
Experiment: RXFP1 Hu cAMP (Test A)
Assay type: cell-based
Design: expressed in transfected cells; host or cells: Jump-In T-REx CHO-K1 cells (ThermoFisher), induced with 10 ng/ml doxycycline for 24 h
Conditions: RXFP1 Hu cAMP; for EC50: read-out: Test A EC50
Method in brief: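 Competitive HTRF cAMP readout (2 h, room temperature) in CHO-K1 cells stably expressing human RXFP1, induced with 10 ng/ml doxycycline for 24 h; IBMX 0.5 mM final.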

Test A Sinf [%] | EC50 [nM] | SMILES
100 | 250 | COc1cc(F)c(O[C@H]2CC[C@@](C)(C(=O)O)CC2)cc1C(=O)N[C@@H]1[C@H]2CC[C@H](C2)[C@@H]1C(=O)NC(C)(C)C [Example 602]
93 | 4.1 | COc1cc(C#N)c(O[C@H]2CC[C@@](C)(C(=O)O)CC2)cc1C(=O)N[C@@H]1C2CCC(CC2)[C@@H]1C(=O)NCC1(C)CCC1 (racemic) [Example 468, (1R,4s)-4-(2-Cyano-4-methoxy-5-(((2SR,3RS)-3-(((1-methylcyclobutyl)methyl)carbamoyl)bicyclo[2.2.2]octan-2-yl)carbamoyl)phenoxy)-1-methylcyclohexane-1-carboxylic acid]
74 | 7800 | COc1cc(F)c(-c2ccc(C(=O)O)cc2)cc1C(=O)N[C@H]1[C@@H]2CC[C@@H](C2)[C@H]1C(=O)N[C@H]1CCCN(S(=O)(=O)C(F)(F)F)C1 (single isomer, unassigned) [Example 314, 2′-Fluoro-4′-methoxy-5′-(((1R*,2S*,3R*,4S*)-3-(((S)-1-((trifluoromethyl)sulfonyl)piperidin-3-yl)carbamoyl)bicyclo[2.2.1]heptan-2-yl)carbamoyl)-[1,1′-biphenyl]-4-carboxylic acid]
95 | – | COc1cc(F)c(-c2ccc(C(=O)O)cc2)cc1C(=O)N[C@@H]1[C@H]2CC[C@H](C2)[C@@H]1C(=O)NCC(C)(C)C [Example 304]
99 | 890 | COc1cc(F)c(O[C@H]2CC[C@@](C)(C(=O)O)CC2)cc1C(=O)N[C@@H]1[C@H]2CC[C@H](C2)[C@@H]1C(=O)NC1CCC1 [Example 598]
89 | – | COc1cc(F)c(O[C@H]2CC[C@](CC#N)(C(=O)O)CC2)cc1C(=O)N[C@@H]1[C@H]2CC[C@H](C2)[C@@H]1C(=O)NCC1(C)CCC1 [Example 423, (1R,4r)-1-(Cyanomethyl)-4-(2-fluoro-4-methoxy-5-(((1S,2R,3S,4R)-3-(((1-methylcyclobutyl)methyl)carbamoyl)bicyclo[2.2.1]heptan-2-yl)carbamoyl)phenoxy)cyclohexane-1-carboxylic acid]
116 | 570 | COc1cc(F)c(O[C@H]2CC[C@@](C)(C(=O)O)CC2)cc1C(=O)N[C@@H]1[C@H]2CC[C@H](C2)[C@@H]1C(=O)NCC1(C#N)CCC1 [Example 595]
102 | 86 | COc1cc(F)c(O[C@H]2CC[C@@](O)(C(=O)O)CC2)cc1C(=O)N[C@@H]1[C@@H]2CC[C@@H](C2)[C@@H]1C(=O)Nc1cccc(S(=O)(=O)C(F)(F)F)c1 (racemic) [Example 422, (1R,4r)-4-(2-Fluoro-4-methoxy-5-(((1RS,2RS,3SR,4SR)-3-((3-((trifluoromethyl)sulfonyl)phenyl)carbamoyl)bicyclo[2.2.1]heptan-2-yl)carbamoyl)phenoxy)-1-hydroxycyclohexane-1-carboxylic acid]
106 | 340 | COc1cc(C#N)c(O[C@H]2CC[C@@](C)(C(=O)O)CC2)cc1C(=O)N[C@@H]1[C@H]2CC[C@H](C2)[C@@H]1C(=O)NC(C)(C)c1ccccc1 [Example 108]
116 | 1000 | COc1ccc(-c2cc(C(=O)N[C@H]3[C@@H](C(=O)Nc4cccc(S(=O)(=O)C(F)(F)F)c4)[C@@H]4C=C[C@H]3C4)c(OC)cc2F)cc1C(=O)O (racemic) [Example 230]
100 | 500 | COc1cc(F)c(-c2ccc([C@@H](C(=O)O)N(C)C)cc2)cc1C(=O)N[C@@H]1[C@H]2CC[C@H](C2)[C@@H]1C(=O)Nc1cccc(S(=O)(=O)C(F)(F)F)c1 (racemic) [Example 295]
93 | 100 | COc1cc(F)c(O[C@H]2CC[C@@](C)(C(=O)O)CC2)cc1C(=O)N[C@@H]1[C@H]2CC[C@H](C2)[C@@H]1C(=O)NCC(F)(F)C(F)(F)F [Example 618]
– | > 40000 | COc1cc(F)c(O[C@H]2CC[C@@](C)(C(=O)O)CC2)cc1C(=O)NC1COCC1C(=O)Nc1cccc(S(=O)(=O)C(F)(F)F)c1 (single isomer, unassigned) [Example 560, (1R,4s)-4-(2-Fluoro-4-methoxy-5-(((3S*,4R*)-4-((3-((trifluoromethyl)sulfonyl)phenyl)carbamoyl)tetrahydrofuran-3-yl)carbamoyl)phenoxy)-1-methylcyclohexane-1-carboxylic acid]
85 | 820 | COc1cc(F)c(-c2cc(C(=O)O)cs2)cc1C(=O)N[C@H]1[C@@H](C(=O)Nc2cccc(S(=O)(=O)C(F)(F)F)c2)[C@@H]2C=C[C@H]1C2 (racemic) [Example 284, rac-5-(2-Fluoro-4-methoxy-5-(((1R,2R,3S,4S)-3-((3-((trifluoromethyl)sulfonyl)phenyl)carbamoyl)bicyclo[2.2.1]hept-5-en-2-yl)carbamoyl)phenyl)thiophene-3-carboxylic acid]
69 | – | COc1cc(F)c(-c2ccc(C(=O)O)cc2)cc1C(=O)N[C@@H]1CC[C@@H]1C(=O)Nc1cccc(S(=O)(=O)C(F)(F)F)c1 (racemic) [Example 301]
– | > 40000 | COc1ccc(CCC(=O)O)cc1C(=O)N[C@H]1[C@@H](C(=O)Nc2cccc(S(=O)(=O)C(F)(F)F)c2)[C@@H]2C=C[C@H]1C2 (racemic) [Example 218, rac-3-(4-Methoxy-3-(((1R,2R,3S,4S)-3-((3-((trifluoromethyl)sulfonyl)phenyl)carbamoyl)bicyclo[2.2.1]hept-5-en-2-yl)carbamoyl)phenyl)propanoic acid]
107 | 320 | COc1cc(F)c(-c2ccc(O)c(C(=O)O)c2)cc1C(=O)N[C@@H]1[C@H]2CC[C@H](C2)[C@@H]1C(=O)Nc1cccc(S(=O)(=O)C(F)(F)F)c1 (racemic) [Example 316, rac-2′-Fluoro-4-hydroxy-4′-methoxy-5′-(((1R,2S,3R,4S)-3-((3-((trifluoromethyl)sulfonyl)phenyl)carbamoyl)bicyclo[2.2.1]heptan-2-yl)carbamoyl)-[1,1′-biphenyl]-3-carboxylic acid]
110 | 3.2 | COc1cc(F)c(O[C@H]2CC[C@@](C)(C(=O)O)CC2)cc1C(=O)N[C@@H]1[C@@H]2CC[C@@H](C2)[C@@H]1C(=O)Nc1cccc(S(=O)(=O)C(F)(F)F)c1 (racemic) [Example 367]
118 | 110 | COc1cc(C#N)c(O[C@H]2CC[C@@](C)(C(=O)O)CC2)cc1C(=O)Nc1cc(Cl)ccc1C(=O)NCC1(c2ccccc2)CC1 [Example 158]
151 | 67 | CCC(C)(C)NC(=O)c1ccc(Cl)cc1NC(=O)c1cc(O[C@H]2CC[C@@](C)(C(=O)O)CC2)c(C#N)cc1OC [Example 163]
– | > 2500 | COCc1cc(F)c(O[C@H]2CC[C@@](C)(C(=O)O)CC2)cc1C(=O)N[C@@H]1[C@H]2CC[C@H](C2)[C@@H]1C(=O)NCC1(C)CCC1 [Example 380]
103 | – | COc1cc(F)c(O[C@H]2CC[C@@](F)(C(=O)O)CC2)cc1C(=O)N[C@@H]1[C@H]2CC[C@H](C2)[C@@H]1C(=O)NCC1(C)CCC1 [Example 415]
63 | 1600 | COc1cc(F)c(O[C@H]2CC[C@@H](C(=O)O)CC2)cc1C(=O)N[C@H]1[C@H]2CC[C@H](C2)[C@H]1C(=O)Nc1cccc(S(F)(F)(F)(F)F)c1 [Example 510, (1R,4s)-4-(2-Fluoro-4-methoxy-5-(((1S,2S,3R,4R)-3-((3-(pentafluoro-6-sulfaneyl)phenyl)carbamoyl)bicyclo[2.2.1]heptan-2-yl)carbamoyl)phenoxy)cyclohexane-1-carboxylic acid]
68 | – | COc1cc(F)c(-c2ccc(O)c(C(=O)O)c2)cc1C(=O)N[C@H]1[C@@H]2CC[C@@H](C2)[C@H]1C(=O)Nc1cccc(S(=O)(=O)C(F)(F)F)c1 (single isomer, unassigned) [Example 557]
96 | – | COc1cc(F)c(O[C@H]2CC[C@@](C)(C(=O)O)CC2)cc1C(=O)N[C@@H]1[C@H]2CC[C@H](C2)[C@@H]1C(=O)NCC1(C(F)(F)F)CC1 [Example 614]
95 | 84 | COc1cc(C#N)c(O[C@H]2CC[C@@](C)(C(=O)O)CC2)cc1C(=O)N[C@@H]1[C@H]2CC[C@H](C2)[C@@H]1C(=O)N[C@@H](C)c1ccccc1 (racemic) [Example 140]
